Test results reported in ChEMBL document CHEMBL4418499, “Inhibitors of trim33 and methods of use” (2018).

Key:
[1] = biological target: T1, E3 ubiquitin-protein ligase TRIM33 (Homo sapiens, UniProt Q9UPN9); assay: Inhibition of recombinant TRIM33 PHD bromodomain (unknown origin) using biotinylated H3 peptide (H3K9me3K18ac) by AlphaScreen assay
T1 sequence (Q9UPN9 whole entry): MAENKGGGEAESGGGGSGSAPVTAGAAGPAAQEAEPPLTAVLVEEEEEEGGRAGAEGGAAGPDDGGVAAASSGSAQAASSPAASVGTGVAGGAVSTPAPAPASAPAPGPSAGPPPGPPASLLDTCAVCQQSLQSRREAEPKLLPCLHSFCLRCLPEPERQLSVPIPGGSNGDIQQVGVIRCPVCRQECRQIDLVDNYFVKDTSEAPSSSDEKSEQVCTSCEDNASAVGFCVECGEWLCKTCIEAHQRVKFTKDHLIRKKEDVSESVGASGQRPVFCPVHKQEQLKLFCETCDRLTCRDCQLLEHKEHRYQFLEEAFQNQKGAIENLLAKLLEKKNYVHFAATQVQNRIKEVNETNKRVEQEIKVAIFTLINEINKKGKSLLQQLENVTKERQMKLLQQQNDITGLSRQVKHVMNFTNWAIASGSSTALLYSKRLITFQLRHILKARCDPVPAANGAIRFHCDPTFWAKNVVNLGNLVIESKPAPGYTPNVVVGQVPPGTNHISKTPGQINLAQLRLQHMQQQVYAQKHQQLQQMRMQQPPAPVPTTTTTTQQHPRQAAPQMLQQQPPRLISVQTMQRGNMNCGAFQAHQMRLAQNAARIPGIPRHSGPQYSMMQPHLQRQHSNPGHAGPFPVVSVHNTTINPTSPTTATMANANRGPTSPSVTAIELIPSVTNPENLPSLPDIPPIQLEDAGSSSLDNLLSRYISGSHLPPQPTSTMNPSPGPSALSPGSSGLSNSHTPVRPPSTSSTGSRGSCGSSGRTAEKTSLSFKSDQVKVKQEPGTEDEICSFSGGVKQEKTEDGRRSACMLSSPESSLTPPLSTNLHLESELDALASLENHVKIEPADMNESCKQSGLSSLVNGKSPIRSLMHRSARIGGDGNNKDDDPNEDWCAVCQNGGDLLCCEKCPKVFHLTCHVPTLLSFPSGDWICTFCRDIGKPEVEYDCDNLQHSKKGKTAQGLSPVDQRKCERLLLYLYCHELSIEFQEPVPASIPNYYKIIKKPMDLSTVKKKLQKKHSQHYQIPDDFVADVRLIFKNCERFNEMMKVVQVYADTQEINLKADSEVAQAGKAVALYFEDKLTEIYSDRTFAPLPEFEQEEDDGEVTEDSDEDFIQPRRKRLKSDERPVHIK

[2] = biological target: T2, Transcription intermediary factor 1-alpha (Homo sapiens, UniProt O15164); assay: Inhibition of recombinant TRIM24 (unknown origin) using biotinylated H3 peptide (H3K9me3K18ac) by AlphaScreen assay
T2 sequence (O15164 whole entry): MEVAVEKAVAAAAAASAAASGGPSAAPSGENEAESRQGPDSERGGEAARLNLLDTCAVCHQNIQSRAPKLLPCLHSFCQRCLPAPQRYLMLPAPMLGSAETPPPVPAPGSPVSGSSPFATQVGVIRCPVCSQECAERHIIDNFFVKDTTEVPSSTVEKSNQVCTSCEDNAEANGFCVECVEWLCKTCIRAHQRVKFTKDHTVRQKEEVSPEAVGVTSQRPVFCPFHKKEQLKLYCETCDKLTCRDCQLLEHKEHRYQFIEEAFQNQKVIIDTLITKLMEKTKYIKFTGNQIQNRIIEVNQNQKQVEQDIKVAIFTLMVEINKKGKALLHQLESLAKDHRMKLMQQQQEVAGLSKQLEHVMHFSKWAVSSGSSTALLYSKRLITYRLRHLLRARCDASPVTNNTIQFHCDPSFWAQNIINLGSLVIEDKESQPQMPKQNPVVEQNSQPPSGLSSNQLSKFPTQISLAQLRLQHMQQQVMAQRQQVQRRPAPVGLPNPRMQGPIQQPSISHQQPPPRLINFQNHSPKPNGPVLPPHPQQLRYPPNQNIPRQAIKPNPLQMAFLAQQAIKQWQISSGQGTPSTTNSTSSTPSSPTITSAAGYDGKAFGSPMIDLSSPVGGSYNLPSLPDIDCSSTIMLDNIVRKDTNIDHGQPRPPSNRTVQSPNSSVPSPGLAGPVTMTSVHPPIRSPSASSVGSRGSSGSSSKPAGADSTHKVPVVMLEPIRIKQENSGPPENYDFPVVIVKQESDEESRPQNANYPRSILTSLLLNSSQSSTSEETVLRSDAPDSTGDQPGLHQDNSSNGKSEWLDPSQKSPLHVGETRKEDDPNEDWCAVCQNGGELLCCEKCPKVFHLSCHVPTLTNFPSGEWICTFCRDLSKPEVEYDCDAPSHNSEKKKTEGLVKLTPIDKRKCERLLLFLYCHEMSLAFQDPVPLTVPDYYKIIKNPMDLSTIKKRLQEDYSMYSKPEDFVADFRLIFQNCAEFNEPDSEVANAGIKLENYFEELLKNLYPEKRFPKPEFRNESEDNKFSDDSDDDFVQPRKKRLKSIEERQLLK

[3] = species: Homo sapiens; assay: Selectivity index, ratio of IC50 for recombinant TRIM24 (unknown origin) to IC50 for recombinant TRIM33 PHD bromodomain (unknown origin)

| Structure (SMILES) | IC50 [1] | IC50 [2] | Ratio IC50 [3] |
| --- | --- | --- | --- |
| COc1ccc(Nc2c(-c3ccc4nccn4c3)nc3cnccn23)cc1 | 38.3 µM | 88.3 µM | 2.3 |
| N#Cc1ccc(CNc2c(-c3ccc4nccn4c3)nc3ccc(Br)cn23)cc1 | 48.1 µM | 296 µM | 6.16 |
| COC(=O)c1ccc2nc(-c3c[nH]c(C)n3)c(NC3CCCCC3)n2c1 | 18.9 µM | 180 µM | 9.48 |
| CCCOc1ccn2c(C(C)=O)cc(-c3nc4cnccn4c3NCc3ccc(C#N)cc3)c2c1 | 66 µM | 819 µM | 12.4 |
| CCCOc1ccn2c(C(C)=O)cc(-c3nc4cnccn4c3Nc3ccc(OC)cc3)c2c1 | 38.5 µM | 226 µM | 5.87 |
| CCCOc1ccn2c(C(C)=O)cc(-c3nc4ccc(C(=O)OC)cn4c3Nc3ccc(OC)cc3)c2c1 | 48.6 µM | 355 µM | 7.3 |
| COc1ccc(CCNc2c(-c3ccc4nccn4c3)nc3ccc(Br)cn23)cc1OC | 20.4 µM | 283 µM | 13.9 |
| COCCNc1c(-c2ccc3nccn3c2)nc2cnccn12 | 190 µM | 5450 µM | 28.6 |
| COc1ccc(Nc2c(-c3ccc4nccn4c3)nc3ccccn23)cc1 | 26 µM | 153 µM | 5.88 |
| Cc1[nH]cnc1-c1nc2cnccn2c1NCc1ccc(C#N)cc1 | 121 µM | 98.4 µM | 0.82 |
| CCCOc1ccn2c(C(C)=O)cc(-c3nc4cnccn4c3NCCc3ccc(OC)c(OC)c3)c2c1 | 23.7 µM | 835 µM | 35.3 |
| Cc1nc(-c2nc3ccc(Br)cn3c2NCCN2CCOCC2)c[nH]1 | 450 µM | 194 µM | 0.43 |
| COC(=O)c1ccc2nc(-c3nc[nH]c3C)c(NCc3ccc(C#N)cc3)n2c1 | 113 µM | 319 µM | 2.83 |
| Cc1nc(-c2nc3ccccn3c2NC2CCCCC2)c[nH]1 | 5.9 µM | 96.5 µM | 16.4 |
| Cc1[nH]cnc1-c1nc2ccc(Br)cn2c1NC1CCCCC1 | 1.03 µM | 8.48 µM | 8.27 |
| CCCOc1ccn2c(C(C)=O)cc(-c3nc4ccccn4c3Nc3ccc(OC)cc3)c2c1 | 9.6 µM | 159 µM | 16.6 |
| Cc1nc(-c2nc3ccccn3c2NCc2ccc(C#N)cc2)c[nH]1 | 26.8 µM | 267 µM | 9.97 |
| COC(=O)c1ccc2nc(-c3c[nH]c(C)n3)c(NCCc3ccc(OC)c(OC)c3)n2c1 | 7.17 µM | 622 µM | 86.8 |

| Structure (SMILES) | IC50 [1] | IC50 [2] | Ratio IC50 [3] |
| --- | --- | --- | --- |
| CCCOc1ccn2c(C(C)=O)cc(-c3nc4cnccn4c3NCCN3CCOCC3)c2c1 | 151 µM | 4980 µM | 32.9 |
| Cc1[nH]cnc1-c1nc2ccc(Br)cn2c1NCc1ccc(C#N)cc1 | 10.1 µM | 29.3 µM | 2.91 |
| Cc1nc(-c2nc3ccc(Br)cn3c2NC2CCCCC2)c[nH]1 | 3.6 µM | 13 µM | 3.62 |
| COCCNc1c(-c2nc[nH]c2C)nc2ccccn12 | 16.3 µM | 35.4 µM | 2.17 |
| c1ccn2c(NC3CCCCC3)c(-c3ccc4nccn4c3)nc2c1 | 13.8 µM | 249 µM | 18.1 |
| COc1ccc(CCNc2c(-c3nc[nH]c3C)nc3ccccn23)cc1OC | 1.36 µM | 31.7 µM | 23.2 |
| COC(=O)c1ccc2nc(-c3c[nH]c(C)n3)c(Nc3ccc(OC)cc3)n2c1 | 8.57 µM | 111 µM | 13 |
| COC(=O)c1ccc2nc(-c3c[nH]c(C)n3)c(NCCN3CCOCC3)n2c1 | 71.4 µM | 2870 µM | 40.3 |
| CCCOc1ccn2c(C(C)=O)cc(-c3nc4ccccn4c3NCCOC)c2c1 | 47.5 µM | 445 µM | 9.36 |
| COC(=O)c1ccc2nc(-c3ccc4nccn4c3)c(Nc3ccc(OC)cc3)n2c1 | 22.2 µM | 375 µM | 16.9 |
| Cc1nc(-c2nc3cnccn3c2NCCN2CCOCC2)c[nH]1 | 131 µM | 1890 µM | 14.5 |
| Cc1[nH]cnc1-c1nc2cnccn2c1NCCN1CCOCC1 | 71 µM | 119 µM | 1.67 |
| COCCNc1c(-c2ccc3nccn3c2)nc2ccc(Br)cn12 | 156 µM | 706 µM | 4.53 |
| c1cn2c(NCCN3CCOCC3)c(-c3ccc4nccn4c3)nc2cn1 | 259 µM | 2190 µM | 8.45 |
| CCCOc1ccn2c(C(C)=O)cc(-c3nc4ccccn4c3NCCN3CCOCC3)c2c1 | 69.6 µM | 250 µM | 3.6 |
| COC(=O)c1ccc2nc(-c3ccc4nccn4c3)c(NCCc3ccc(OC)c(OC)c3)n2c1 | 15.7 µM | 5980 µM | 380 |
| COc1ccc(Nc2c(-c3nc[nH]c3C)nc3cnccn23)cc1 | 14.7 µM | 7.32 µM | 0.5 |
| CCCOc1ccn2c(C(C)=O)cc(-c3nc4ccccn4c3NC3CCCCC3)c2c1 | 8.72 µM | 142 µM | 16.2 |
